The record followed here is PubChem BioAssay (NCI).

Molecules are shown by their SMILES.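 Tested at 5 concentrations; 48 h exposure; 96-well plates; endpoints linearly interpolated, else capped at highest concentration. At the GI50, growth is halved. TGI denotes the concentration required for complete inhibition of growth.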 Where only a bound is given, the exact number is not on record here.

Some test systems named below: ACHN renal; UACC-62 melanoma; OVCAR-3 ovarian; U251 CNS; 786-0 renal; SR leukemia; OVCAR-4 ovarian; HL-60(TB) leukemia; OVCAR-8 ovarian; MALME-3M melanoma.
What all share (experiment): growth of human tumour cells (NCI), 48 h

Regarding `Oc1ccc(-c2[nH]c3ccccc3c2-c2nc3ccccc3o2)cc1`, the GI50 with ACHN renal was 3.58 µM; with UACC-62 melanoma, 3.1 µM; with OVCAR-3 ovarian, 3.05 µM; in the assay on U251 CNS it was 2.86 µM; with 786-0 renal, 4.4 µM; with SR leukemia it was 4.78 µM. The GI50 with OVCAR-4 ovarian is 2.14 µM; in the assay with HL-60(TB) leukemia it was 12.1 µM; in the assay on OVCAR-8 ovarian, 4.57 µM; in the assay on MALME-3M melanoma, 7.47 µM. Further, the TGI in the assay with ACHN renal was determined as 14.9 µM; with UACC-62 melanoma it was 15 µM; with OVCAR-3 ovarian it was 9.8 µM; in the assay on U251 CNS, 11.6 µM; with 786-0 renal, 15.2 µM; in the assay on SR leukemia it was 25.7 µM. The TGI in the assay with OVCAR-4 ovarian was 14.7 µM; in the assay on HL-60(TB) leukemia, 49.5 µM; in the assay with OVCAR-8 ovarian, 20.9 µM; in the assay with MALME-3M melanoma, 28.3 µM.

In the case of `COc1ccc(C(=O)/C=C/c2ccc(OCc3ccccc3)c(OC)c2)cc1OC`, the GI50 in the assay with ACHN renal was 4.31 µM; in the assay on UACC-62 melanoma, 4.01 µM; in the assay with OVCAR-3 ovarian, 2.85 µM; with U251 CNS, 3.51 µM; with 786-0 renal it was 5.36 µM; in the assay with SR leukemia it was 2.47 µM. Besides, the GI50 with OVCAR-4 ovarian was 5.01 µM; with HL-60(TB) leukemia, 3.67 µM; in the assay on OVCAR-8 ovarian, 3.1 µM; in the assay with MALME-3M melanoma it was 12.7 µM. Besides, the TGI with ACHN renal was greater than 100 µM; in the assay on UACC-62 melanoma, greater than 100 µM; in the assay with OVCAR-3 ovarian it was 8.77 µM; with U251 CNS, greater than 100 µM; in the assay on 786-0 renal, greater than 100 µM; in the assay on SR leukemia, greater than 100 µM. Moreover, the TGI in the assay with OVCAR-4 ovarian was greater than 100 µM; in the assay on HL-60(TB) leukemia, 32.5 µM; with OVCAR-8 ovarian it was greater than 100 µM; in the assay on MALME-3M melanoma it was greater than 100 µM.

On to `Cc1c(C)c2ccc(OC(C)C(=O)O)cc2oc1=O` (stereo not drawn), for which the TGI in the assay on ACHN renal, in the assay with UACC-62 melanoma, with OVCAR-3 ovarian, in the assay with U251 CNS, in the assay on 786-0 renal and with SR leukemia was greater than 100 µM throughout. For the same compound, the TGI with OVCAR-4 ovarian, in the assay on HL-60(TB) leukemia, in the assay with OVCAR-8 ovarian and in the assay on MALME-3M melanoma was greater than 100 µM in each case.

As to `CCN(CC)Cc1cc(Nc2cc(C(F)(F)F)c(C#N)c3nc4ccccc4n23)ccc1O`, the GI50 in the assay on ACHN renal was 2.24 µM; with UACC-62 melanoma it was 1.22 µM; in the assay with OVCAR-3 ovarian it was 1.83 µM; with U251 CNS, 1.5 µM; with 786-0 renal it was 2.57 µM; with SR leukemia, 3.72 µM. The GI50 is 1 µM in the assay on OVCAR-4 ovarian, 2.96 µM in the assay on HL-60(TB) leukemia, 2.68 µM in the assay with OVCAR-8 ovarian and 1.19 µM in the assay with MALME-3M melanoma. Further, the TGI in the assay with ACHN renal was 10.3 µM; in the assay on UACC-62 melanoma, 3.96 µM; with OVCAR-3 ovarian it was 10.4 µM; in the assay with U251 CNS it was 6.47 µM; in the assay with 786-0 renal, 9.98 µM; with SR leukemia it was greater than 100 µM. The TGI in the assay on OVCAR-4 ovarian was 2.59 µM; with HL-60(TB) leukemia, 8.37 µM; with OVCAR-8 ovarian, 12.6 µM; with MALME-3M melanoma, 5.82 µM.

For `CN(C)c1ccc2c(c1)OC(N)=C(C#N)C2c1ccc2c(c1)CCCN2C` (stereo not drawn), the GI50 in the assay on ACHN renal was 4.63 µM; in the assay with UACC-62 melanoma it was 1.55 µM; with OVCAR-3 ovarian, 0.691 µM; with U251 CNS it was 2.6 µM; with 786-0 renal it was 4.33 µM; in the assay on SR leukemia, 0.648 µM. Moreover, the GI50 is 5.01 µM with OVCAR-4 ovarian, 2.81 µM in the assay with HL-60(TB) leukemia, 3.2 µM in the assay with OVCAR-8 ovarian and 16.3 µM in the assay with MALME-3M melanoma. Besides, the TGI with ACHN renal was 64.6 µM; in the assay on UACC-62 melanoma, 33.9 µM; in the assay with OVCAR-3 ovarian, 10.3 µM; with U251 CNS it was 21.9 µM; in the assay with 786-0 renal it was greater than 100 µM; in the assay on SR leukemia it was 16.6 µM. Moreover, the TGI is greater than 100 µM in the assay on OVCAR-4 ovarian, 8.7 µM in the assay on HL-60(TB) leukemia, 27.5 µM in the assay with OVCAR-8 ovarian and 58.9 µM in the assay on MALME-3M melanoma.

For the compound `O=c1c2ccccc2n2cnc3ccc(NCCNCCO)c1c32`, the TGI with ACHN renal was 7.42 µM; with UACC-62 melanoma it was 7.27 µM; with OVCAR-3 ovarian it was 9.82 µM; in the assay with U251 CNS, 13.6 µM; in the assay with 786-0 renal it was 10.4 µM; with SR leukemia, greater than 33.6 µM. Besides, the TGI in the assay on OVCAR-4 ovarian stood at 4.57 µM; in the assay with HL-60(TB) leukemia, 18.5 µM; in the assay with OVCAR-8 ovarian it was 5.02 µM; in the assay with MALME-3M melanoma, 9.3 µM.

For `O=C(O)Cn1ccc(=O)c2c([N+](=O)[O-])cccc21`, the TGI in the assay with ACHN renal, in the assay on UACC-62 melanoma, with OVCAR-3 ovarian, in the assay on U251 CNS, with 786-0 renal and in the assay with SR leukemia was greater than 100 µM in each case. Besides, the TGI in the assay with HL-60(TB) leukemia, in the assay on OVCAR-8 ovarian and in the assay with MALME-3M melanoma was greater than 100 µM each time.

For `C1=C(c2ccccc2)C(OC2Oc3ccccc3C=C2c2ccccc2)Oc2ccccc21` (stereo not drawn), the TGI was greater than 100 µM in the assay with ACHN renal; greater than 100 µM in the assay on UACC-62 melanoma; greater than 100 µM with OVCAR-3 ovarian; 45.1 µM in the assay on U251 CNS; greater than 100 µM in the assay with 786-0 renal; greater than 100 µM in the assay on SR leukemia. Besides, the TGI with HL-60(TB) leukemia, with OVCAR-8 ovarian and with MALME-3M melanoma was greater than 100 µM each time.

With `O=C(Nc1ccc(Br)cc1)Nc1cccc(Br)c1`, the GI50 in the assay on 786-0 renal was 34.5 µM; with SR leukemia, 11.6 µM; in the assay with MALME-3M melanoma, 8.69 µM. For the same compound, the TGI with 786-0 renal, with SR leukemia and with MALME-3M melanoma was greater than 100 µM in each case.

Consider `Nc1c(C(=O)Nc2ccccc2O)[n+]([O-])c2ccccc2[n+]1[O-]`, for which the TGI in the assay with ACHN renal, in the assay on OVCAR-3 ovarian, in the assay on U251 CNS, with 786-0 renal, in the assay with SR leukemia and in the assay on OVCAR-4 ovarian was greater than 100 µM each time. Moreover, the TGI in the assay with HL-60(TB) leukemia, with OVCAR-8 ovarian and with MALME-3M melanoma was greater than 100 µM each time.
